In PMC9005681, “Use of AD Informer Set compounds to explore validity of novel targets in Alzheimer's disease pathology” (Alzheimer's & Dementia : Translational Research & Clinical …, 2022):
“And” between values parts separate entries of the source, which are not always exact repeats. Equal entries are not always repeated.

What was measured:
cellular system = system: cellular system; design: method as in column References for potency and dosing (the 5th table c13); settings: published data; References for potency and dosing; cited from earlier work
[1] = aqueous, neutral pH (7.4); cited from earlier work
[2] = target: T1, cloned human or rodent CNS receptors, channels, and transporters (PDSP panel) (Homo sapiens, UniProt P50406); assay: PDSP GPCR panel primary binding assays at 10 μM; settings: 5-HT6, primary assay
T1 construct: expressed in transfected cells
T1 sequence (P50406 whole entry): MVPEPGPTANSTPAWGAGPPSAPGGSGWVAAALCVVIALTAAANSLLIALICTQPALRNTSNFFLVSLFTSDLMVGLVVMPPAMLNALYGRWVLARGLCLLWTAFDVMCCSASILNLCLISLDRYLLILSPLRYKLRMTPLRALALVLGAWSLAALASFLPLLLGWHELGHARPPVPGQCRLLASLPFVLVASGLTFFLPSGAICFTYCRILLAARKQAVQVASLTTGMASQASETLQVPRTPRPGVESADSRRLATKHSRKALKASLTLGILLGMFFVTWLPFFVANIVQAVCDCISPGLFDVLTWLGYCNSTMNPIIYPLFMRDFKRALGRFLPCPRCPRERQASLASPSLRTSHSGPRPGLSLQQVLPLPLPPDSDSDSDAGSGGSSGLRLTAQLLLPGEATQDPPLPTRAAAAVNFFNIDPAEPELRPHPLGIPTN
Experimental: (§1) GPCR panel: Screening against the receptors within the PDSP panel offers an assessment of off-target pharmacological activity at cloned human or rodent CNS receptors, channels, and transporters that could confound CNS-related phenotypes. A total of 46–47 primary binding assays were run in quadruplicate on these compounds at 10 μM, with follow-up secondary binding assays in 11-point dose-response in triplicate for select compounds versus select receptors. Secondary binding assays were executed for all receptors where test compound displaced an average of >50% of radio-labeled standard ligand. As an exception, no secondary assays were carried out for H3, PBR, or GABAA. […]

[3] = target: T2, cloned human or rodent CNS receptors, channels, and transporters (PDSP panel) (Homo sapiens, UniProt P47898); assay: PDSP GPCR panel primary binding assays at 10 μM; settings: 5-HT5A, primary assay
T2 construct: expressed in transfected cells
T2 sequence (P47898 whole entry): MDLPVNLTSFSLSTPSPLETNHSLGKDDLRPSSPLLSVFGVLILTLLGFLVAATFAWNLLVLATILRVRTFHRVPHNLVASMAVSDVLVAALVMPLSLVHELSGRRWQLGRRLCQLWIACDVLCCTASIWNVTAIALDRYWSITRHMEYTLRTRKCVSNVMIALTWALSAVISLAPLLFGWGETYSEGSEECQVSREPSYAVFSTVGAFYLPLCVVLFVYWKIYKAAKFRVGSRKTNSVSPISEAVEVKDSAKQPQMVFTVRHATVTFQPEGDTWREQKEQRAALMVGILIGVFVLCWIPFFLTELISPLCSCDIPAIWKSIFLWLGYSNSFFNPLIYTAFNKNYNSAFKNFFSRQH
Experimental: as §1

[4] = target: T3, cloned human or rodent CNS receptors, channels, and transporters (PDSP panel) (Homo sapiens, UniProt P28222); assay: PDSP GPCR panel primary binding assays at 10 μM; settings: 5-HT1B, primary assay
T3 construct: expressed in transfected cells
T3 sequence (P28222 whole entry): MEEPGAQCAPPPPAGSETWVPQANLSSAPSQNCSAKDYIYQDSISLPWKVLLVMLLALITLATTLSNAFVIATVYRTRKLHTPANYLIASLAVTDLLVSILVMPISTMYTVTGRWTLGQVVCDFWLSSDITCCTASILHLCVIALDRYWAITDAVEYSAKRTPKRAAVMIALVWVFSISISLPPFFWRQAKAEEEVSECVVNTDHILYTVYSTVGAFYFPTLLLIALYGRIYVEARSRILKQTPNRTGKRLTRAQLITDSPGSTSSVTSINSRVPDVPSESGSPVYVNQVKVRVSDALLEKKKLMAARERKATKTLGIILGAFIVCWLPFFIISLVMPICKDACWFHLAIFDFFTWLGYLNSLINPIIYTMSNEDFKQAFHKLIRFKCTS
Experimental: as §1

[5] = target: T4, cloned human or rodent CNS receptors, channels, and transporters (PDSP panel) (Homo sapiens, UniProt P08173); assay: PDSP GPCR panel primary binding assays at 10 μM; settings: M4, primary assay
T4 construct: expressed in transfected cells
T4 sequence (P08173 1-479): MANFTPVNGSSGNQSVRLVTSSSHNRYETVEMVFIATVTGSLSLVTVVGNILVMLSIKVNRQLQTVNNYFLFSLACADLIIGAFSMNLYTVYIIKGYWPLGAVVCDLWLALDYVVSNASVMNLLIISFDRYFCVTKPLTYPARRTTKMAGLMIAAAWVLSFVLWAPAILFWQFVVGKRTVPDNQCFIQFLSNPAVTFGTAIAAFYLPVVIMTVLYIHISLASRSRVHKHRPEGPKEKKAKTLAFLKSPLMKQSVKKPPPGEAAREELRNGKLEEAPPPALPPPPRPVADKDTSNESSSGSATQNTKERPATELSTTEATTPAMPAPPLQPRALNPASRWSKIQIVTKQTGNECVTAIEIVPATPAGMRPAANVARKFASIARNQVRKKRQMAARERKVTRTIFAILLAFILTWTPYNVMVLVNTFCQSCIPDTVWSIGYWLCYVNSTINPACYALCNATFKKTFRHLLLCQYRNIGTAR
Experimental: as §1

[6] = target: T5, cloned human or rodent CNS receptors, channels, and transporters (PDSP panel) (Homo sapiens, UniProt P46098); assay: PDSP GPCR panel primary binding assays at 10 μM; settings: 5-HT3, primary assay
T5 construct: expressed in transfected cells
T5 sequence (P46098 24-478): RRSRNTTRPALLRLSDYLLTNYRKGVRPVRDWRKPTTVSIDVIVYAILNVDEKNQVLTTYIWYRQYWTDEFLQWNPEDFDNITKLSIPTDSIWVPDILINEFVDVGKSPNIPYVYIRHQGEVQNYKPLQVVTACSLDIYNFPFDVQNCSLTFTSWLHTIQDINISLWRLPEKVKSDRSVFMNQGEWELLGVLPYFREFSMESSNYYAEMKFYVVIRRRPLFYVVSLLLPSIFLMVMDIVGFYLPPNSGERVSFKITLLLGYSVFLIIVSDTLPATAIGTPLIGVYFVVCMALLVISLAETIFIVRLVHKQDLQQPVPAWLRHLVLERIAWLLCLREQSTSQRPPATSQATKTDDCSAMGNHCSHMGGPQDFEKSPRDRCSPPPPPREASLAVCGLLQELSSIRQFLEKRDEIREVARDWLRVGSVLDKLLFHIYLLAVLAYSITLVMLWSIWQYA
Experimental: as §1

[7] = target: T6, cloned human or rodent CNS receptors, channels, and transporters (PDSP panel) (Homo sapiens, UniProt P41595); assay: PDSP GPCR panel primary binding assays at 10 μM; settings: 5-HT2B, primary assay
T6 construct: expressed in transfected cells
T6 sequence (P41595 whole entry): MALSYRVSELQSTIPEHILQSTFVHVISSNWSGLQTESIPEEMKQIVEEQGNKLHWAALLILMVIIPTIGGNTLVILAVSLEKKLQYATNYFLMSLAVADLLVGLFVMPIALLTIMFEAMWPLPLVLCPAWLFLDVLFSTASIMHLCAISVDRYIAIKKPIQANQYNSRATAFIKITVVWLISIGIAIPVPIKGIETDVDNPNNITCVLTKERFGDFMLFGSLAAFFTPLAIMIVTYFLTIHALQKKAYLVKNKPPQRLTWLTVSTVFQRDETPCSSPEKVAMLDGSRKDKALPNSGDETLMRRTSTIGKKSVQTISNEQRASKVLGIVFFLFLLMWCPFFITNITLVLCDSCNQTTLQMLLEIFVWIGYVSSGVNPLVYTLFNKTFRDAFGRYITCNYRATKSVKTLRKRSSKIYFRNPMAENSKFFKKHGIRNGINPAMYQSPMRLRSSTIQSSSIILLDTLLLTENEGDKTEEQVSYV
Experimental: as §1

[8] = Snapshot IV PK in CD1 mice; type: in vivo
Experimental: PK data: For snapshot PK studies, pooled plasma was analyzed at 0.5h, 1h, 2h, and 4h following
a single IV dose (3 mg/kg) in CD1 mice (2 mice per cohort) for each compound (Table 2). […]

- Mean % ([2]; mean inhibition): -6.87%
- Inhibition 1 ([2]; replicate 1): 12.58%
- Inhibition 2 ([2]; replicate 2): -11.55%
- Inhibition 3 ([2]; replicate 3): -17.27%
- Inhibition 4 ([2]; replicate 4): -11.23%
- Mean % ([3]; mean inhibition): 0.62% and -5.72%
- Inhibition 1 ([3]; replicate 1): 13.64% and 5.79%
- Inhibition 2 ([3]; replicate 2): -10.06% and -11.12%
- Inhibition 3 ([3]; replicate 3): -4.07% and -16.75%
- Inhibition 4 ([3]; replicate 4): 2.96% and -0.78%
- Mean % ([4]; mean inhibition): -2.56%
- Inhibition 1 ([4]; replicate 1): 6.88%
- Inhibition 2 ([4]; replicate 2): -14.35%
- Inhibition 3 ([4]; replicate 3): 0.2%
- Inhibition 4 ([4]; replicate 4): -2.95%
- Mean % ([5]; mean inhibition): 14.93%
- Inhibition 1 ([5]; replicate 1): 10.45%
- Inhibition 2 ([5]; replicate 2): 4.02%
- Inhibition 3 ([5]; replicate 3): 7.46%
- Inhibition 4 ([5]; replicate 4): 37.78%
- Mean % ([6]; mean inhibition): 8.2%
- Inhibition 1 ([6]; replicate 1): 4.04%
- Inhibition 2 ([6]; replicate 2): 9.4%
- Inhibition 3 ([6]; replicate 3): -1.71%
- Inhibition 4 ([6]; replicate 4): 21.06%
- Mean % ([7]; mean inhibition): -22.71%
- Inhibition 1 ([7]; replicate 1): -0.89%
- Inhibition 2 ([7]; replicate 2): -25.64%
- Inhibition 3 ([7]; replicate 3): -26.48%
- Inhibition 4 ([7]; replicate 4): -37.81%
- clearance ([8]; CD1, mouse, plasma, iv, 3 mg/kg): 26.3 mL/min/kg
- Cmax ([8]; CD1, plasma, mouse, 3.0 mg/kg): 4010 ng/mL
- half-life ([8]; CD1, plasma, mouse, 3.0 mg/kg): 38.4 min
- Vd ([8]; CD1, plasma, mouse, 3.0 mg/kg, read-out: Vss): 0.62 L/kg
SMILES: CNc1nc(C)nc(N[C@H]2CCC[C@@H](C(=O)NCc3ccc(C#N)cc3C(F)(F)F)C2)n1 [UNC10302679A, GSK2256294A]
- Reported as cell active (<10 μM) (cellular system): Y (Published data supports that the compound is active in a cellular system when dosed at 10 μM (Y/N))
- Kinetic solubility [1]: 147.5 µM
